Values of other authors, collected in patent publication US12630801B2, “Stem cell-derived Schwann cells” (MEMORIAL SLOAN-KETTERING CANCER CENTER, priority 2016, dated 2026).

Experiments:
Conditions in all cases: Yu et al. 2008; Cuny et al. 2008
ALK2 = target: T1, ALK2 (Homo sapiens, UniProt Q04771)
T1 sequence (Q04771 21-509): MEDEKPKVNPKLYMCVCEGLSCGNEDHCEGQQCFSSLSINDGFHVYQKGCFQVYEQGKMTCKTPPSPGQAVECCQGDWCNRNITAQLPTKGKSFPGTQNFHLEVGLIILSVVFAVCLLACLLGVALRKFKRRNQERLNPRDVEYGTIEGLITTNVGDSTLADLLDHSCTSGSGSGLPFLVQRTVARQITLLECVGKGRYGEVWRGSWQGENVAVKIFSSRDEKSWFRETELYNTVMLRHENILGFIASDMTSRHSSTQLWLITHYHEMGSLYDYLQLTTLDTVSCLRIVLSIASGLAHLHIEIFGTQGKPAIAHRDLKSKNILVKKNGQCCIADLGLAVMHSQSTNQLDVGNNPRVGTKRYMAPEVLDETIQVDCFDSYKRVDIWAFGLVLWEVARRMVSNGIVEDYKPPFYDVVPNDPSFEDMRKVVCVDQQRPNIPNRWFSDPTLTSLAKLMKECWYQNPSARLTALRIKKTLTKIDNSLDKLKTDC

ALK3 = ALK3 (Homo sapiens, UniProt P36894)
ALK3, sequence (P36894 24-532, species assumed): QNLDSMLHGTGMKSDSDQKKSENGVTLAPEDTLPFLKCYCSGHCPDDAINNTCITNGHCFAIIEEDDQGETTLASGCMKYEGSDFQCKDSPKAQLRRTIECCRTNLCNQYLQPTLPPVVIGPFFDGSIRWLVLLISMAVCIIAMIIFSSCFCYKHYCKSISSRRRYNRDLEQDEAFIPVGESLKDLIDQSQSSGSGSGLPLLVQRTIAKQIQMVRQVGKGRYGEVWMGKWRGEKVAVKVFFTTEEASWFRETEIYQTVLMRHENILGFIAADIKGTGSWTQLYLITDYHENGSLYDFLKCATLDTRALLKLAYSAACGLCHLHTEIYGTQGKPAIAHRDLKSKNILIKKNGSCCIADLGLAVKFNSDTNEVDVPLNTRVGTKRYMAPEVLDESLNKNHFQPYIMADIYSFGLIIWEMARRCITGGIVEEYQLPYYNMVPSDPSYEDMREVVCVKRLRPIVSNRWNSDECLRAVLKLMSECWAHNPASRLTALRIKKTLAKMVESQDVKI

ALK6 = ALK6 (Homo sapiens, UniProt O00238)
ALK6, sequence (O00238 14-502): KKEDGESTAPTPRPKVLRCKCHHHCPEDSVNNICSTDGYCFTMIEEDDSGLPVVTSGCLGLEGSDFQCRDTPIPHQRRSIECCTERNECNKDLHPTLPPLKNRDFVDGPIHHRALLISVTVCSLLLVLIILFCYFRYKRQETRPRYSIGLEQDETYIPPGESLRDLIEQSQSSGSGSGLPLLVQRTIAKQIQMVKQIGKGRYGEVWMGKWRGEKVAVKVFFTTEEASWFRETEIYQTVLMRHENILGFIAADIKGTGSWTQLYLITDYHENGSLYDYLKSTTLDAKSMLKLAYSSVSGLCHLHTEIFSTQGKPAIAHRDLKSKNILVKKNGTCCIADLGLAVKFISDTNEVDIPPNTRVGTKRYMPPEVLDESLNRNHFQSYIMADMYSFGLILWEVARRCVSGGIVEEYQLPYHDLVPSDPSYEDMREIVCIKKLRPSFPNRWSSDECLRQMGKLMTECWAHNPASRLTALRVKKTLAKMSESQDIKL

c1ccc2c(-c3cnn4cc(-c5ccc(N6CCNCC6)cc5)cnc34)ccnc2c1 [LDN193189, 4-(6-(4-(piperazin-1-yl)phenyl)pyrazolo[1,5-a]pyrimidin-3-yl)quinoline]
highly potent small-molecule inhibitor: inhibition of ALK2 (ALK2) | inhibition of ALK3 (ALK3) | inhibition of ALK6 (ALK6)
